This is an account of results in patent EP0386611A2, “Amino acid derivatives” (F. HOFFMANN-LA ROCHE AG, priority 1989, dated 1990).

Experiment [1] deals with T1, HIV protease (Human immunodeficiency virus type 1 group M subtype B, UniProt P04585).
T1 construct: HIV protease was expressed in E. coli and partially purified from soluble extracts; made in house; host or cells: E. coli
Nature of the experiment: In vitro inhibition of HIV protease (spectrophotometric assay of N-terminal proline from cleavage of substrate S¹ or S²). As to conditions: citrate buffer pH 5.5, 37°C. The format is biochemical. Here is the method:
HIV protease was expressed in E. coli and partially purified from soluble extracts of the bacterium by ammonium sulphate fractionation (0-30%). Protease activity was assayed using as the substrate the protected hexapeptide succinyl-Ser-Leu-Asn-Tyr-Pro-Ile isobutylamide (S¹) or the protected heptapeptide succinyl-Val-Ser-Gln-Asn-Phe-Pro-Ile isobutylamide (S²). Cleavage of the substrate was quantified by measuring the production of H-Pro-Ile isobutylamide by the spectrophotometric assay of N-terminal proline.
1.25 mM of substrate S¹ or 0.68 mM of substrate S² were dissolved in 125 mM of citrate buffer (pH 5.5) containing 0.125 mg/ml of Tween 20. 10 µl of a solution of various concentrations of the test compound (dissolved in methanol or dimethyl sulphoxide and diluted with water containing 0.1% Tween 20) and 10 µl of protease were added to 80 µl of the respective buffered substrate. Digestion was carried out at 37°C for a fixed period of time and was terminated by the addition of 1 ml of colour reagent [30 µg/ml of isatin and 1.5 mg/ml of 2-(4-chlorobenzoyl)benzoic acid in 10% acetone in ethanol (vol./vol.)]. The solution was heated in a boiling water bath for 15 minutes and then the pigmented residues were re-dissolved in 1 ml of 1% pyrogallol in 33% water in acetone (wt./vol./vol.). The optical density of the solution was measured spectrophotometrically at 599 nm. The formation of H-Pro-Ile isobutylamide in the presence of the test compound was compared with controls and the concentration of test compound required to give 50% inhibition (IC₅₀) was determined by means of a graph plotted from the various concentrations of test compound used.
In the above test the determination of the IC₅₀ values for potent inhibitors is limited by mutual depletion. In this respect, substrate S² is more sensitive than substrate S¹ and this allows reduced protease concentrations to be used, which results in lower IC₅₀ values. This will be seen from the results presented in the Table hereinafter where in turn the 2nd run with substrate S² was carried out using a lower protease concentration than in the 1st run which results again in lower IC₅₀ values.

The subject of experiment [2] is HTLV-III (strain RF). Nature of the experiment: In vitro antiviral activity: HTLV-III (strain RF) in C8166 cells, p24 antigen capture assay. The format is cell-based. The settings on record: Human immunodeficiency virus 1; concentration that produces 50% protection; C8166 cells infected with ten times the TCD₅₀, 72 hours at 37°C, viral protein 24 antigen capture; read-out: IC₅₀ Activity against HIV. The protocol:
This assay uses HTLV-III (strain RF) grown in C8166 cells (a human CD4⁺ T lymphoblastoid line) using RPM1 1640 medium with bicarbonate buffer, antibiotics and 10% foetal bovine serum.
A suspension of cells is infected with ten times the TCD₅₀ of virus and adsorption allowed to proceed for 90 minutes at 37°C. The cells are washed three times with medium. The test is carried out in 6 ml tissue culture tubes, each tube containing 2 x 10⁵ infected cells in 1.5 ml of medium. Test compounds are dissolved in either aqueous medium or dimethyl sulphoxide, according to solubility, and a 15 µl solution of the compound added. The cultures are incubated at 37°C for 72 hours in a humidified atmosphere containing 5% carbon dioxide in air. The cultures are then centrifuged and an aliquot of the supernatant solubilized with Nonidet P40 and subjected to an antigen capture assay which uses a primary antiserum with particular reactivity against the viral protein 24 and a horseradish peroxidase detection system. Colour generation is measured spectrophotometrically and plotted against the concentration of test compound. The concentration that produces 50% protection is determined (IC₅₀).

Where [3] appears, read: substrate S² (succinyl-Val-Ser-Gln-Asn-Phe-Pro-Ile isobutylamide), 0.68 mM, 1st run, read-out: IC₅₀ Inhibition of HIV protease S² 1st run.
Where [4] appears, read: substrate S², 0.68 mM, 2nd run, lower protease concentration than in the 1st run, read-out: IC₅₀ Inhibition of HIV protease S² 2nd run.
The mark [5] stands for this setting: substrate S¹ (succinyl-Ser-Leu-Asn-Tyr-Pro-Ile isobutylamide), 1.25 mM, read-out: IC₅₀ Inhibition of HIV protease S¹.

pIC50: −log10 of the molar value. Like-named read-outs stand apart in the source and are kept apart here. Some results are limits rather than exact numbers.

As to `CC[C@H](C)[C@H](NC(=O)[C@@H](C[C@H](O)[C@H](CC1CCCCC1)NC(=O)OC(C)(C)C)C(C)C)C(=O)NCCc1ccccc1` [Compound A, N²-[5(S)-(tert.Butoxyformamido)-6-cyclohexyl-4(S)-hydroxy-2(S)-isopropylhexanoyl]-N¹-phenethyl-L-isoleucinamide], the pIC50 in experiment [1] (setting [3]) was 8.35; in experiment [1] (setting [4]), 9.21; in experiment [1] (setting [5]), 7.92; in experiment [2], 7.00.
Take `CC[C@H](C)[C@H](NC(=O)[C@@H](C[C@H](O)[C@H](CC1CCCCC1)NC(=O)OC(C)(C)C)C(C)C)C(=O)N[C@@H](Cc1ccccc1)C(=O)OC` [Compound B, N-[N-[5(S)-(tert.Butoxyformamido)-6-cyclohexyl-4(S)-hydroxy-2(S)-isopropylhexanoyl]-L-isoleucyl]-L-phenylalanine methyl ester]: the results for the pIC50 in experiment [1] (setting [3]), in experiment [1] (setting [4]) and in experiment [1] (setting [5]) were 8.47, 9.32 and 7.70, respectively.
As to `CC[C@H](C)[C@H](NC(=O)[C@@H](C[C@H](O)[C@H](CC1CCCCC1)NC(=O)OC(C)(C)C)C(C)C)C(=O)NCc1ccccc1` [Compound C, N²-[5(S)-(tert.Butoxyformamido)-6-cyclohexyl-4(S)-hydroxy-2(S)-isopropylhexanoyl]-N¹-benzyl-L-isoleucinamide], the pIC50 in experiment [1] (setting [3]) is 8.48; in experiment [1] (setting [5]), 7.82; in experiment [2], 8.15.
With `CC[C@H](C)[C@H](NC(=O)[C@@H](C[C@H](O)[C@H](CC1CCCCC1)NC(=O)OC(C)(C)C)C(C)C)C(=O)NCCc1ccccn1` [Compound D, N²-[5(S)-(tert.Butoxyformamido)-6-cyclohexyl-4(S)-hydroxy-2(S)-isopropylhexanoyl]-N¹-[2-(2-pyridyl)ethyl]-L-isoleucinamide], the pIC50 in experiment [1] (setting [3]) was 8.60; in experiment [1] (setting [4]) it was 9.28; in experiment [2] it was 7.70.
Regarding `CC[C@H](C)[C@H](NC(=O)[C@@H](C[C@H](O)[C@H](CC1CCCCC1)NC(=O)OC(C)(C)C)C(C)C)C(=O)NC1Cc2ccccc2C1` [Compound E, N²-[5(S)-(tert.Butoxyformamido)-6-cyclohexyl-4(S)-hydroxy-2(S)-isopropylhexanoyl]-N¹-(2-indanyl)-L-isoleucinamide], the pIC50 in experiment [1] (setting [3]) was 8.37; in experiment [1] (setting [4]), 8.66; in experiment [2] it was 7.15.
The corresponding values for `CC[C@H](C)[C@H](NC(=O)[C@@H](C[C@H](O)[C@H](CC1CCCCC1)NC(=O)OC(C)(C)C)C(C)C)C(=O)NCCN1CCOCC1` [Compound F, N²-[5(S)-(tert.Butoxyformamido)-6-cyclohexyl-4(S)-hydroxy-2(S)-isopropylhexanoyl]-N¹-(2-morpholinoethyl)-L-isoleucinamide] are 8.40, 8.72 and 7.00.
As for `CC[C@H](C)[C@H](NC(=O)[C@@H](C[C@H](O)[C@H](Cc1ccccc1)NC(=O)OC(C)(C)C)C(C)C)C(=O)NCCc1ccccc1` [Compound G, N²-[5(S)-(tert.Butoxyformamido)-4(S)-hydroxy-2(S)-isopropyl-6-phenylhexanoyl]-N¹-phenethyl-L-isoleucinamide], the pIC50 is 8.39 in experiment [1] (setting [3]), 9.05 in experiment [1] (setting [4]), 7.49 in experiment [1] (setting [5]) and 7.00 in experiment [2].
The corresponding values for `CC[C@H](C)[C@H](NC(=O)[C@@H](C[C@H](O)[C@H](CC1CCCCC1)NC(=O)OCc1ccccc1)C(C)C)C(=O)NCCc1ccccc1` [Compound H, N²-[5(S)-Benzyloxyformamido-6-cyclohexyl-4(S)-hydroxy-2(S)-isopropylhexanoyl]-N¹-phenethyl-L-isoleucinamide] are 8.52, 9.04, 7.66 and 7.22.
Turning to `CC[C@H](C)[C@H](NC(=O)[C@@H](C[C@H](O)[C@H](CC1CCCCC1)NC(=O)[C@H](CC(N)=O)NC(=O)OCc1ccccc1)C(C)C)C(=O)NCCc1ccccc1` [Compound I, N²-[5(S)-[[N-(Benzyloxycarbonyl)-L-asparaginyl]amino]-6-cyclohexyl-4(S)-hydroxy-2(S)-isopropylhexanoyl]-N¹-phenethyl-L-isoleucinamide], the pIC50 in experiment [1] (setting [3]) is 8.60; in experiment [1] (setting [4]), 9.41; in experiment [1] (setting [5]), 7.10; in experiment [2], 8.05.
With `CC[C@H](C)[C@H](NC(=O)[C@@H](C[C@H](O)[C@H](CC1CCCCC1)NC(=O)CC(C)(C)C)C(C)C)C(=O)NCCc1ccccc1` [Compound J, N²-[5(S)-(tert.Butylacetamido)-6-cyclohexyl-4(S)-hydroxy-2(S)-isopropylhexanoyl]-N¹-phenethyl-L-isoleucinamide], the pIC50 in experiment [1] (setting [3]) is 8.11; in experiment [2], 7.00.
Take `CC[C@H](C)[C@H](NC(=O)[C@@H](C[C@H](O)[C@H](CC1CCCCC1)NC(=O)[C@H](CC#N)NC(=O)OCc1ccccc1)C(C)C)C(=O)NCCc1ccccc1` [Compound K, N²-[5(S)-[[N-(Benzyloxycarbonyl)-β-cyano-L-alanyl]amino]-6-cyclohexyl-4(S)-hydroxy-2(S)-isopropylhexanoyl]-N¹-phenethyl-L-isoleucinamide]: the pIC50 in experiment [1] (setting [4]) is 8.80; in experiment [2], 8.40.
On the same counts, the results for `CC[C@H](C)[C@H](NC(=O)[C@@H](C[C@H](O)[C@H](CC1CCCCC1)NC(=O)OC(C)(C)C)C(C)C)C(=O)NCCN1CCN(C(=O)OCc2ccccc2)CC1` [Compound L, N¹-[2-[4-(Benzyloxycarbonyl)-1-piperazinyl]ethyl]-N²-[5(S)-(tert.butoxyformamido)-6-cyclohexyl-4(S)-hydroxy-2(S)-isopropylhexanoyl]-L-isoleucineamide] are 8.57 and 8.30.
On the same counts, the results for `CC[C@H](C)[C@H](NC(=O)[C@@H](C[C@H](O)[C@H](CC1CCCCC1)NC(=O)OC(C)(C)C)C(C)C)C(=O)NCCc1ccc(O)cc1` [Compound M, N²-[5(S)-(tert.Butoxyformamido)-6-cyclohexyl-4(S)-hydroxy-2(S)-isopropylhexanoyl]-N¹-[2-(4-hydroxyphenyl)ethyl]-L-isoleucinamide] are 8.43 and 8.00.
As to `CC[C@H](C)[C@H](NC(=O)[C@H](C(C)C)[C@@H](O)[C@H](O)[C@H](CC1CCCCC1)NC(=O)OC(C)(C)C)C(=O)NCCN1CCN(C(=O)OCc2ccccc2)CC1` [Compound N, N¹-[2-[4-(Benzyloxycarbonyl)-1-piperazinyl]ethyl]-N²-[5(S)-(tert.butoxyformamido)-6-cyclohexyl-3(R),4(R)-dihydroxy-2(R)-isopropylhexanoyl]-L-isoleucinamide], the results for the pIC50 in experiment [1] (setting [4]) and in experiment [2] were 8.39 and above 7.00, respectively.
